Laboratory results as given in the NIST ThermoML archive (doi:10.1021/acs.jced.9b00371).

Conditions: Liquid, Brillouin light scattering method

CCCCCCCC(=O)OC [methyl octanoate]
Conditions | speed of sound [m/s]
298.22 K, 7000 kPa | 1316.3
298.3 K, 10010 kPa | 1327.9
298.44 K, 1010 kPa | 1292.1
298.44 K, 5000 kPa | 1307.1
298.6 K, 3000 kPa | 1298.2
298.84 K, 90 kPa | 1274.5
308.25 K, 3010 kPa | 1258.8
308.37 K, 10010 kPa | 1291.2
308.42 K, 100 kPa | 1236.4
308.49 K, 7010 kPa | 1280.4
308.52 K, 1010 kPa | 1248.8
308.58 K, 5010 kPa | 1270.1
318.18 K, 5010 kPa | 1221.3
318.56 K, 7020 kPa | 1229.5
318.76 K, 10010 kPa | 1242.4
318.91 K, 3010 kPa | 1208
319.59 K, 110 kPa | 1192.3
319.89 K, 1010 kPa | 1194.5
327.96 K, 5010 kPa | 1186
328.11 K, 3020 kPa | 1171.3
328.36 K, 100 kPa | 1158
328.69 K, 7010 kPa | 1191.4
328.82 K, 10010 kPa | 1209.9
328.88 K, 1010 kPa | 1155.4
337.63 K, 100 kPa | 1121.6
337.88 K, 7010 kPa | 1157.9
338.43 K, 1010 kPa | 1125.5
338.46 K, 10010 kPa | 1174.8
338.47 K, 5000 kPa | 1147.2
338.96 K, 3000 kPa | 1134.3
347.39 K, 3000 kPa | 1104.6
347.87 K, 10010 kPa | 1148.4
348.45 K, 110 kPa | 1078.6
348.54 K, 5020 kPa | 1109.1
348.77 K, 7000 kPa | 1120.5
348.8 K, 1000 kPa | 1085.5
357.69 K, 3010 kPa | 1071.8
357.74 K, 5000 kPa | 1079.2
357.91 K, 10000 kPa | 1112.7
358.16 K, 100 kPa | 1044.6
358.25 K, 7000 kPa | 1095.1
358.56 K, 1010 kPa | 1049.3
367.26 K, 5000 kPa | 1049.2
367.28 K, 3000 kPa | 1038.1
367.29 K, 110 kPa | 1015.5
367.47 K, 10010 kPa | 1078.4
367.73 K, 7010 kPa | 1060.7
368.05 K, 1000 kPa | 1017.5
377.8 K, 1000 kPa | 989.1
378.03 K, 7000 kPa | 1027.3
378.16 K, 4990 kPa | 1013.1
378.27 K, 100 kPa | 975.6
378.29 K, 10000 kPa | 1047.1
378.6 K, 3000 kPa | 1000.4
387.15 K, 110 kPa | 947.3
387.64 K, 3000 kPa | 964.7
387.88 K, 10010 kPa | 1017.7
388.01 K, 7000 kPa | 991.8
388.02 K, 1000 kPa | 952.1
388.04 K, 5000 kPa | 978.4
397.22 K, 1010 kPa | 922.4
397.37 K, 3010 kPa | 934
397.49 K, 10010 kPa | 988
397.57 K, 7010 kPa | 963.7
397.59 K, 5010 kPa | 949.2
397.71 K, 100 kPa | 910.7
407.84 K, 5010 kPa | 916.3
408.01 K, 10010 kPa | 954.1
408.03 K, 3000 kPa | 896.1
408.14 K, 100 kPa | 873.1
408.48 K, 7010 kPa | 933.8
409.43 K, 1000 kPa | 879.8
417.31 K, 1010 kPa | 850.6
417.49 K, 110 kPa | 841.4
417.49 K, 5000 kPa | 885.5
417.57 K, 7000 kPa | 904.2
417.65 K, 10000 kPa | 925.4
417.75 K, 3000 kPa | 867.9
427.78 K, 110 kPa | 811.6
427.88 K, 7010 kPa | 873.7
427.9 K, 1010 kPa | 822.3
427.93 K, 3010 kPa | 837.5
427.94 K, 10010 kPa | 899.7
427.95 K, 5010 kPa | 855.8
438.55 K, 100 kPa | 775.1
438.61 K, 1000 kPa | 780.2
438.61 K, 10010 kPa | 866.1
438.81 K, 7000 kPa | 838.7
438.87 K, 5000 kPa | 823.4
438.94 K, 3010 kPa | 803.1
447.87 K, 1010 kPa | 754.6
447.88 K, 5000 kPa | 793.5
447.92 K, 7000 kPa | 813.8
447.96 K, 3010 kPa | 776.7
447.96 K, 10000 kPa | 841
448.01 K, 110 kPa | 744.4
457.92 K, 1000 kPa | 724.7
458.07 K, 5010 kPa | 760.9
458.12 K, 7010 kPa | 782.2
458.17 K, 3000 kPa | 744.1
458.18 K, 10010 kPa | 810.7
467.43 K, 10010 kPa | 784.5
467.58 K, 7010 kPa | 759.7
467.9 K, 5000 kPa | 738.9
468.47 K, 1010 kPa | 694.8
468.68 K, 3000 kPa | 713.7
476.82 K, 5010 kPa | 710.8
477 K, 10010 kPa | 759.6
477.06 K, 1000 kPa | 665
477.26 K, 7010 kPa | 729
477.88 K, 3010 kPa | 685.8
486.8 K, 1000 kPa | 631
486.87 K, 3000 kPa | 654.3
486.92 K, 5010 kPa | 682
486.96 K, 7010 kPa | 700
487 K, 10010 kPa | 738.2
498.13 K, 3010 kPa | 625.4
498.28 K, 7000 kPa | 667.5
498.28 K, 10000 kPa | 705
498.41 K, 5000 kPa | 644.1
498.83 K, 1000 kPa | 596.6
507.85 K, 1010 kPa | 568.9
507.87 K, 7000 kPa | 646.1
507.89 K, 3010 kPa | 596.3
507.91 K, 5010 kPa | 620.4
507.91 K, 10000 kPa | 680.6
517.71 K, 3000 kPa | 567.5
517.73 K, 1000 kPa | 534.7
517.79 K, 7000 kPa | 619
517.81 K, 5000 kPa | 594.2
518.17 K, 10000 kPa | 658.9
527.51 K, 7010 kPa | 600
527.6 K, 1010 kPa | 500
527.66 K, 3010 kPa | 537.5
528.05 K, 10000 kPa | 631.9
528.28 K, 5010 kPa | 569.1
537.38 K, 1000 kPa | 472.9
537.57 K, 7000 kPa | 569.9
537.63 K, 3010 kPa | 511.3
537.67 K, 5000 kPa | 543.3
537.72 K, 9990 kPa | 609.6
547.06 K, 1000 kPa | 438.8
547.13 K, 5010 kPa | 516
547.47 K, 10010 kPa | 583.9
547.67 K, 7000 kPa | 544
547.87 K, 3000 kPa | 480.9
557.84 K, 1000 kPa | 403.8
557.94 K, 5010 kPa | 489.3
558.16 K, 7000 kPa | 515.9
558.18 K, 10010 kPa | 561.2
558.2 K, 3000 kPa | 448
567.35 K, 1010 kPa | 371.2
567.7 K, 5000 kPa | 461
567.81 K, 7000 kPa | 495.4
567.91 K, 3010 kPa | 418.8
567.95 K, 10010 kPa | 543.8
577.4 K, 3010 kPa | 389.4
577.79 K, 5000 kPa | 432.1
577.89 K, 7000 kPa | 469.8
578.16 K, 10000 kPa | 522.9
587.88 K, 3000 kPa | 361.9
588.02 K, 5010 kPa | 411.1
588.47 K, 7010 kPa | 450.4
597.58 K, 3000 kPa | 331.4
598.07 K, 7000 kPa | 426.9
598.29 K, 5010 kPa | 384.1
608.09 K, 7010 kPa | 400.7
608.23 K, 5000 kPa | 353.7
608.38 K, 3000 kPa | 294.3
